{
  "source": "patent US20050222266A1",
  "about": "“2-indanylamino derivatives for the therapy of chronic pain” (priority 2002, published 2005)",
  "key": {"rat MES model": {"tested_on": "rat MES model", "conditions": "cited from earlier work"}, "[1]": {"tested_on": "formalin-induced licking and flinching", "experiment": "mouse formalin test, 9 day treatment (tolerance)", "type": "in vivo, mice", "protocol": "The mice paw formalin test was performed as described by Wheeler-Aceto et al. (Psychopharmacology 104:35-44, 1991). Briefly, the day before the formalin injection, mice were placed individually into clear plastic cylinders for 30 minutes of adaptation. The day of testing 20 μl of 1% formalin was injected into the plantar surface of the left hind paw and the animals were again placed into the plastic cylinder for the behavioural observation. The amount of time, in seconds, the animals spent licking and flinching (L/F) the injected paw for the first 5 min (early phase), and then from 10 to 40 min(late phase) after formalin injection, was used as measurement of intensity of pain. CHF 3381 10-100 mg/kg i.p. and 25-200 mg/kg p.o. or the corresponding vehicles, were administered 15 and 30 min before formalin injection, respectively.\nMoreover, the formalin test was used to examine whether tolerance develops with respect to the antihyperalgesic effect of CHF 3381 after chronic treatment in comparison with the standard opioid morphine. Briefly, mice were divided randomly into five groups (12 mice per group) and administered once daily for 8 days as follows: three groups with saline i.p., one group with CHF 3381 60 mg/kg i.p. and one group with morphine 20 mg/kg i.p. On ninth day these groups were treated in following way: one saline pre-treated group was treated with saline i.p. (g1); two saline pre-treated group were treated with CHF 3381 30 mg/kg i.p. (g2) and with morphine 6 mg/kg i.p. (g3), respectively; the group pre-treated with CHF 3381 60 mg/kg was treated with CHF 3381 30 mg/kg i.p. (g4) and the group pre-treated with morphine 20 mg/kg was treated with morphine 6 mg/kg i.p.(g5), a dose that was previously shown to be active in the formalin test. CHF 3381 and morphine were administered 15 and 30 min before formalin injection, respectively."}, "[2]": {"tested_on": "mechanical hyperalgesia in streptozotocin (STZ)-induced diabetic neuropathy", "experiment": "streptozotocin-induced diabetic neuropathy, paw pressure test", "type": "in vivo, rat", "conditions": "100 mg/kg p.o.", "protocol": "The objective of this study was to assess the antinociceptive effects of CHF 3381 (25, 50 and 100 mg/kg p.o.) and gabapentin (100 mg/kg p.o) on mechanical hyperalgesia in streptozotocin (STZ)-induced diabetic neuropathy in rats. Diabetes was induced by intraperitoneal injection of STZ (75 mg/kg), and 23 days later its presence was confirmed by measuring of tail vein blood glucose levels and only rats with […] were included in the study.\nAfter 25 days, distilled water, CHF3381 and gabapentin were administered 60 minutes before pain measurement. The nociceptive threshold was evaluated in all groups using a mechanical nociceptive stimulation (paw pressure test).\nAn increasing pressure (grams of contact pressure) was applied onto the both hind paws of the animal until a nociceptive reaction (vocalisation or paw withdrawal) was determined. The results, expressed as the percentage variation of the nociceptive threshold calculated respect the mean value of the vehicle-treated diabetic group, are reported in Table 2."}, "[3]": {"conditions": "G3: 6 mg/kg i.p. on ninth day after 8 days saline"}, "[4]": {"conditions": "G5: 6 mg/kg i.p. on ninth day after 8 days morphine 20 mg/kg i.p."}},
  "data": [
    {"smiles": "Cl.NC(=O)C(CO)NC1Cc2ccccc2C1", "note": "(stereo not shown) [3-hydroxy-2-(2-indanylamino)-propanamide hydrochloride]", "values": [
      {"measurement": "anti-convulsivant activity", "setting": "rat MES model", "value": "anti-convulsivant activity"}
    ]},
    {"smiles": "CN1CC[C@]23c4c5ccc(O)c4O[C@H]2[C@@H](O)C=C[C@H]3[C@H]1C5", "note": "[Morphine, morphine, reference compound]", "values": [
      {"measurement": "Early phase", "setting": "[1]; [3]", "value": "52 ± 15", "unit": "s"},
      {"measurement": "Late phase", "setting": "[1]; [3]", "value": "91 ± 21", "unit": "s"},
      {"measurement": "Early phase", "setting": "[1]; [4]", "value": "95 ± 9", "unit": "s"},
      {"measurement": "Late phase", "setting": "[1]; [4]", "value": "175 ± 22", "unit": "s"},
      {"measurement": "antihyperalgesic action after chronic treatment (tolerance)", "setting": "[1]; once daily for 8 days, test on ninth day", "value": "failed to show such actions"}
    ]},
    {"smiles": "CC(NC1Cc2ccccc2C1)C(N)=O.Cl", "note": "(stereo not shown) [2-(2-indanylamino)-propanamide hydrochloride]", "values": [
      {"measurement": "anti-convulsivant activity", "setting": "rat MES model", "value": "anti-convulsivant activity"}
    ]},
    {"smiles": "NCC1(CC(=O)O)CCCCC1", "note": "[Gabapentin, gabapentin, reference compound]", "values": [
      {"measurement": "Nociceptive threshold", "setting": "[2]; 60 minutes before measurement", "value": "229.2 ± 32.3", "unit": "g"},
      {"measurement": "% variation of the nociceptive threshold", "setting": "[2]; vs vehicle-treated diabetic group", "value": 68, "unit": "%"}
    ]},
    {"smiles": "CN(CC(N)=O)C1Cc2ccccc2C1.Cl", "note": "[N-2(indanyl)-N-methyl glicinamide hydrochloride]", "values": [
      {"measurement": "anti-convulsivant activity", "setting": "rat MES model", "value": "anti-convulsivant activity"}
    ]}
  ]
}
